Measurements taken from patent US6492381B1, “Tricyclic carbamate compounds useful for inhibition of G-protein function and for treatment of proliferative diseases” (Schering Corp., priority 1993, dated 2002).
Like-named read-outs stand apart in the source and are kept apart here.

Key:
[1] = test system: Normal human HEPM fibroblasts; test: Cell Mat assay: inhibition of normal cell growth; assay type: cell-based; details: mIC50, normal cell monolayer
Method: (§1) Normal human HEPM fibroblasts were planted in 3.5 cm dishes at a density of 5×10^4 cells/dish in 2 ml growth medium, and incubated for 3-5 d to achieve confluence. Medium was aspirated from each dish and the indicator tumor cells, T24-BAG4 human bladder carcinoma cells expressing an activated H-ras gene, were planted on top of the fibroblast monolayer at a density of 2×10^3cells/dish in 2 ml growth medium, and allowed to attach overnight. Compound-induced colony inhibition was assayed by addition of serial dilutions of compound directly to the growth medium 24 h after tumor cell planting, and incubating cells for an additional 14 d to allow colony formation. Assays were terminated by rinsing monolayers twice with phosphate-buffered saline (PBS), fixing the monolayers with a 1% glutaraldehyde solution in PBS, then visualizing tumor cells by staining with X-Gal (Price, J., et al., Lineage analysis in the vertebrate nervous system by retrovirus-mediated gene transfer, Proc. Natl. Acad. Sci.84, 156-160(1987)). […] Both IC50 values were obtained by determining the density of tumor cells and mat cells by visual inspection and enumeration of cells per colony and the number of colonies under the microscope. The therapeutic index of the compound was quantitatively expressed as the ratio of mIC50/tIC50, with values greater than one indicative of tumor target specificity.

[2] = test system: T24-BAG4 human bladder carcinoma cells expressing an activated H-ras gene; test: Cell Mat assay: inhibition of tumor cell growth; assay type: cell-based; details: for IC50: tIC50
Method: as §1

[3] = biological target: T1, farnesyl protein transferase (FPT) (Rattus norvegicus, UniProt Q02293+Q04631); test: In vitro enzyme assay: inhibition of farnesyl protein transferase; assay type: biochemical
T1 construct: were partially purified from rat brain by ammonium sulfate fractionation followed by Q-Sepharose; from tissue; host or cells: rat brain
Method: 1. In vitro enzyme assays: Inhibition of farnesyl protein transferase and geranylgeranyl protein transferase.
Human farnesyl protein transferase was also expressed in E. coli, using cDNA clones encoding both the α and β subunits. […] Two forms of val^12-Ha-Ras protein were prepared as substrates for these enzymes, differing in their carboxy terminal sequence. One form terminated in cysteine-valine-leucine-serine (Ras-CVLS) the other in cystein-valine-leucine-leucine (Ras-CVLL). Ras-CVLS is a substrate for the farnesyl protein transferase while Ras-CVLL is a substrate for geranylgeranyl protein transferase I. The cDNAs encoding these proteins were constructed so that the proteins contain an amino-terminal extension of 6 histidine residues. Both proteins were expressed in Escherichia coli and purified using metal chelate affinity chromatography. The radiolabelled isoprenyl pyrophosphate substrates, [^3H]farnesyl pyrophosphate and [^3H]geranylgeranyl pyrophosphate, were purchased from DuPont/New England Nuclear.
The reaction was allowed to proceed for 30 minutes at room temperature and then stopped with 0.5 ml of 4% sodium dodecyl sulfate (SDS) followed by 0.5 ml of cold 30% trichloracetic acid (TCA). Samples were allowed to sit on ice for 45 minutes and precipitated Ras protein was then collected on GF/C filter paper mats using a Brandel cell harvester. […] Percent inhibition was calculated relative to the DMSO vehicle control.

[4] = Ras-CVLS farnesylation, partially purified rat brain FPT, read-out: FPT IC50

Row | SMILES | IC50 [3, 4] [µM] | also measured
1 | CCOC(=O)N1CCC(=C2c3ccc(Cl)cc3CCc3ccc[n+]([O-])c32)CC1 [Compound 515.00, Ethyl 4-(8-chloro-5,6-dihydro-11H-benzo[5,6]cyclohepta[1,2-B]pyridin-11-ylidene)-1-piperidinecarboxylate N-oxide] | 37.6 | IC50 [1]: > 100 µM; selective antiproliferative activity against Ras-transformed cells versus normal cells [2]: little; IC50 [2]: 75 µM
2 | CCOC(=O)N1CCC(F)(C2c3ccc(Cl)cc3CCc3cccnc32)CC1 (stereo not drawn) [Compound 520.00] | 10.4 | –
3 | CCOC(=O)N1CCC(=C2c3ccc(Br)cc3CCc3cccnc32)CC1 [Compound 540.00] | 7 | –
4 | CCOC(=O)N1CCC(=C2c3ccc(Cl)cc3CCc3cc(C)cnc32)CC1 [Compound 545.00] | 7.1 | –
5 | CCOC(=O)N1CCC(=C2c3cc(Cl)c(Cl)cc3CCc3cccnc32)CC1 [Compound 555.00] | 37.8 | –
6 | COC(=O)N1CCC(=C2c3ccc(Cl)cc3CCc3cccnc32)CC1 [Compound 560.00] | 17.6 | –
7 | O=C(OCc1ccccc1)N1CCC(=C2c3ccc(Cl)cc3CCc3cccnc32)CC1 [Compound 570.00] | 8 | –
8 | CCCCCCOC(=O)N1CCC(=C2c3ccc(Cl)cc3CCc3cccnc32)CC1 [Compound 590.00] | 80 | –
9 | CCOC(=O)N1CCC(=C2c3ccc(Cl)cc3CCc3c(Cl)ccnc32)CC1 [Compound 596.00] | 10.5 | –
10 | CCOC(=O)N1CCN([C@@H]2c3ccc(Cl)cc3CCc3cccnc32)CC1 [Compound 602.00, (+) Ethyl 4-(8-chloro-6,11-dihydro-11H-benzo[5,6]-cyclohepta[1,2-b]pyridin-11(R)-yl)-1-piperazine Carboxylate] | 34.1 | –
11 | CCOC(=O)N1CCN([C@H]2c3ccc(Cl)cc3CCc3cccnc32)CC1 [Compound 604.00, (−) Ethyl 4-(8-chloro-6,11-dihydro-11H-benzo[5,6]-cyclohepta[1,2-b]pyridin-11(S)-yl)-1-piperazinecarboxylate] | 10.5 | –
12 | O=C(OCc1ccccc1)N1CCN(C2c3ccc(Cl)cc3CCc3cccnc32)CC1 (stereo not drawn) [Compound 614.00, Phenylmethyl 4-(8-chloro-6,11-dihydro-5H-benzo[5,6]-cyclohepta[1,2-b]pyridin-11-yl)-1-piperazinecarboxylate] | > 20 | IC50 ([1]; Homo sapiens, Fibroblast): > 50 µM; selective antiproliferative activity against Ras-transformed cells versus normal cells [2]: little; IC50 ([2]; Homo sapiens): 50 µM
13 | CCOC(=O)N1CCC(C2c3cc(CC)c(Cl)cc3C=Cc3cccnc32)CC1 (stereo not drawn) [Compound 622.00, 8-chloro-11-(1-ethoxycarbonyl-4-piperidinyl)-9-ethyl-11H-benzo[5,6]cyclohepta[1,2-b]pyridine] | 10.5 | –
14 | CCOC(=O)N1CCC(C2c3ccc(Cl)cc3C=Cc3c(Cl)ccnc32)CC1 (stereo not drawn) [Compound 636.00] | 7.4 | –
15 | CCOC(=O)N1CCC(=C2c3ccc(Cl)cc3CCc3cc(Br)cnc32)CC1 [Compound 642.00] | 2.17 | IC50 ([1]; Homo sapiens, Fibroblast): > 50 µM; selective antiproliferative activity against Ras-transformed cells versus normal cells [2]: little; IC50 ([2]; Homo sapiens): 50 µM
16 | O=C(Oc1cccnc1)N1CCC(=C2c3ccc(Cl)cc3CCc3c(Cl)ccnc32)CC1 [Compound 644.00, 3-pyridyl 4-(4,8-dichloro-5,6-dihydro-11H-benzo[5,6]cyclohepta[1,2-b]pyridin-11-ylidene)-1-piperidine Carboxylate] | 1.03 | –
17 | CCOC(=O)N1CCC(=C2c3ccc(Cl)cc3CCc3c(O)ccnc32)CC1 [Compound 646.00, Ethyl 4-[4-hydroxy-8-chloro-5,6-dihydro-11H-benzo[5,6]cyclohepta[1,2-b]pyridin-11-ylidene]-1-piperidine Carboxylate] | – | inhibition at 15 µM ([3]; @ 15 μM): 30%
18 | O=C(Oc1cccnc1)N1CCC(=C2c3ccc(Cl)cc3CCc3c(O)ccnc32)CC1 [Compound 648.00, 3-pyridyl 4-[4-hydroxy-8-chloro-5,6-dihydro-11H-benzo[5,6]cyclohepta[1,2-b]pyridin-11-ylidene]-1-piperidine Carboxylate] | 6.7 | –
19 | O=C(Oc1cccnc1)N1CCC(=C2c3ccc(Cl)cc3CCc3c(On4nnc5ccccc54)ccnc32)CC1 [Compound 656.00, 3-pyridyl 4-[4-[(1H-benzotriazol-1-yl)oxy]-8-chloro-5,6-dihydro-11H-benzo[5,6]cyclohepta[1,2-b]pyridin-11-ylidene[-1-piperidine Carboxylate] | 0.71 | –
20 | CCOC(=O)N1CCC(=C2c3ccc(Cl)cc3CCc3cc(OC)cnc32)CC1 [Compound 658.00, 8-chloro-3-methoxy-11-(1-ethoxycarbonyl-4-piperidylidene)-6,11-dihydro-5H-benzo[5,6]-cyclohepta[1,2-b]pyridine] | 11.5 | –
21 | CCOC(=O)N1CCC(=C2c3ccc(Cl)cc3CCc3c2ncc(Br)c3O)CC1 [Compound 660.00, Ethyl 4-[3-bromo-4-hydroxy-8-chloro-5,6-dihydro-11H-benzo[5,6]cyclohepta[1,2-b]pyridin-11-ylidene]-1-piperidine Carboxylate] | – | inhibition at 13 µM ([3]; @ 13 μM): 22%
22 | O=C(Oc1cccnc1)N1CCC(=C2c3ccc(Cl)cc3CCc3c2ncc(Br)c3O)CC1 [Compound 662.00, 3-pyridyl 4-[3-bromo-4-hydroxy-8-chloro-5,6-dihydro-11H-benzo[5,6]cyclohepta[1,2-b]pyridin-11-ylidene]-1-piperidine Carboxylate] | 3.8 | –
23 | O=C(Oc1cccnc1)N1CCC(=C2c3ccc(Cl)cc3C=Cc3cccnc32)CC1 [Compound 664.00] | 1.46 | –
24 | CCOC(=O)N1CCC(=C2c3ccc(Cl)cc3C=Cc3cccnc32)CC1 [Compound 666.00] | 10.8 | –
25 | O=C(Oc1ccc[n+]([O-])c1)N1CCN(C2c3ccc(Cl)cc3CCc3cccnc32)CC1 (stereo not drawn) [Compound 800.00] | 3.7 | –
26 | O=C(Oc1ccc[n+]([O-])c1)N1CCN(C2c3ccc(Cl)cc3CCc3cc(Br)cnc32)CC1 (stereo not drawn) [Compound 801.00] | – | IC50 [3]: 0.28 µM
27 | CN1CCC(OC(=O)N2CCN(C3c4ccc(Cl)cc4CCc4cccnc43)CC2)CC1 (stereo not drawn) [Compound 802.00] | > 1.3 | FPT inhibition, second line of the FPT IC50 (μM) column ([3]; (1.3), the values are: FPT inhibition at 1.3 µM): 35%
28 | CN1CCCC(OC(=O)N2CCN(C3c4ccc(Cl)cc4CCc4cccnc43)CC2)C1 (stereo not drawn) [Compound 804.00] | 2.1 | –
29 | CN1CCCC(OC(=O)N2CCN(C3c4ccc(Cl)cc4CCc4cc(Br)cnc43)CC2)C1 (stereo not drawn) [Compound 805.00] | 0.3 | –
30 | O=C(Oc1ccccc1)N1CCN(C2c3ccc(Cl)cc3C=Cc3cccnc32)CC1 (stereo not drawn) [Example 32] | – | IC50 ([1]; Homo sapiens, Fibroblast): 25 µM; IC50 ([2]; Homo sapiens): 25 µM; IC50 [3]: 0.88 µM
